In ChEMBL document CHEMBL1131315, “Synthesis and anticonvulsant activity of 2(3H)-benzoxazolone and 2(3H)-benzothiazolone derivatives” (J Med Chem, 1998):
Calls of active or inactive are those of the source. No cut-off for these calls is given here.

Legend:
Mus musculus [1] = test: Time of peak effect in mice following i.p. administration.; format: functional
Mus musculus [2] = test: The compound was tested for anticonvulsant activity in Maximal electroshock seizure test (MES) for 4 hr in mice(ip); no activity or toxicity at 300 mg/kg; format: functional, organism-based; set-up: dose 300 mg/kg
Mus musculus [3] = test: Anticonvulsant activity in Maximal electroshock seizure test at 100 mg/kg i.p. in mice.; format: functional, organism-based; set-up: dose 100 mg/kg
Mus musculus [4] = test: The compound was tested to inhibit 50% of induced maximal electroshock seizure in mice on ip administration; format: functional
Mus musculus [5] = test: Inhibition of s.c. pentylenetetrazole induced seizure in mice following i.p. administration.; format: functional
Mus musculus [6] = test: Anticonvulsant activity in subcutaneous pentylenetetrazole seizure test for 30 min in mice; No activity/toxicity at 300 mg/kg.; format: functional, organism-based; set-up: dose 300 mg/kg
Mus musculus [7] = test: The anticonvulsant activity in subcutaneous pentylenetetrazole seizure test (sc Met) for 4 hr in mice; no activity or no toxicity at 300 mg/kg; format: functional, organism-based; set-up: dose 300 mg/kg
Sigma 2 receptor = test: Affinity on sigma 2 receptor using [3H]- DTG as radioligand
[8] = biological target: Sigma non-opioid intracellular receptor 1 (Homo sapiens) (UniProt Q99720); test: Ratio between the Ki(nM)values of sigma-2 and sigma-1; format: functional
Sequence of Sigma non-opioid intracellular receptor 1 (Homo sapiens) (Q99720 whole entry): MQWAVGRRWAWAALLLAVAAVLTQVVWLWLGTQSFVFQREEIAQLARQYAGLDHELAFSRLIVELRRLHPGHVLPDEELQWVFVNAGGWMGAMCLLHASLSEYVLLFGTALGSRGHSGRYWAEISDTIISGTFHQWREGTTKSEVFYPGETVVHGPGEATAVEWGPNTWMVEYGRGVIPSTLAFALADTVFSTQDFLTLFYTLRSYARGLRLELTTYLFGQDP

[9] = The compound was tested for neurologic toxicity (rotarod) test for 30 min in mice; active at 100 mg/kg; format: organism-based; set-up: dose 100 mg/kg; conditions: mouse, in vivo, 0.5 h
[10] = (§1) The compound was determined for the dose (mg/kg) by rotarod test at the time of peak neurotoxic effect in mice on ip administration.; format: ADME, organism-based; conditions: mouse, in vivo
[11] = The compound was tested for time of peak effect (TPE) in hours for its toxicity in mice on ip administration.; format: organism-based; conditions: mouse, in vivo
[12] = The compound was tested for neurologic toxicity (rotarod) test for 4 hours in mice; no activity or no toxicity at 300 mg/kg; format: organism-based; set-up: dose 300 mg/kg; conditions: mouse, in vivo
Mus musculus [13] = test: The compound was tested for anticonvulsant activity in Maximal electroshock seizure test (MES) for 4 hr in mice(ip); active at 300 mg/kg; format: functional, organism-based; set-up: dose 300 mg/kg
Mus musculus [14] = test: The compound was tested to inhibit 50% of induced maximal electroshock seizure in mice on ip administration.; format: functional
[15] = The compound was tested for neurologic toxicity (rotarod) test for 30 min in mice; no activity or no toxicity at 300 mg/kg; format: organism-based; set-up: dose 300 mg/kg; conditions: mouse, in vivo, 0.5 h
[16] = The compound was tested for neurologic toxicity (rotarod) test for 4 hours in mice; active at 300 mg/kg; format: organism-based; set-up: dose 300 mg/kg; conditions: mouse, in vivo
Mus musculus [17] = test: The compound was tested for anticonvulsant activity in Maximal electroshock seizure test (MES) for 4 hr in mice(ip); active at 100 mg/kg; format: functional, organism-based; set-up: dose 100 mg/kg
Mus musculus [18] = test: The compound was tested for anticonvulsant activity in subcutaneous pentylenetetrazole seizure test (sc Met) for 30 min in mice; active at 300 mg/kg; format: functional, organism-based; set-up: dose 300 mg/kg
Mus musculus [19] = test: The compound was tested for anticonvulsant activity in subcutaneous pentylenetetrazole seizure test (sc Met) for 4 hr in mice; active at 300 mg/kg; format: functional, organism-based; set-up: dose 300 mg/kg
Mus musculus [20] = test: The compound was tested for anticonvulsant activity in Maximal electroshock seizure test for 30 min in mice(ip); active at 30 mg/kg; format: functional, organism-based; set-up: dose 30 mg/kg
Mus musculus [21] = test: The compound was tested for anticonvulsant activity in subcutaneous pentylenetetrazole seizure test (sc Met) for 30 min in mice; active at 100 mg/kg; format: functional, organism-based; set-up: dose 100 mg/kg
Mus musculus [22] = test: as §1; format: functional
[23] = The compound was tested for neurologic toxicity (rotarod) test for 30 min in mice; active at 300 mg/kg; format: organism-based; set-up: dose 300 mg/kg; conditions: mouse, in vivo, 0.5 h

Structure (SMILES)	Activity (Mus musculus [1]) [h]	MES (Mus musculus [2])	MES (Mus musculus [3])	ED50 (Mus musculus [5]) [mg/kg]	scMet (Mus musculus [6])	scMet (Mus musculus [7])	Ki (Sigma 2 receptor) [nM]	Ratio [8]	Rotarod toxicity [9]	TD50 [10] [mg/kg]	Toxicity [11] [h]	Rotarod toxicity [12]	MES (Mus musculus [13])	Rotarod toxicity [16]	further results
CCC(=O)c1ccc2c(c1)oc(=O)n2CCN1CCCCC1	0.25	No activity or toxicity at 300 mg/kg	No activity or toxicity at 300 mg/kg	> 100	No activity or no toxicity at 300 mg/kg	No activity or no toxicity at 300 mg/kg	900	13	active at 100 mg/kg	72.9	0.25	active at 100 mg/kg	–	–	ED50 (Mus musculus [4]): 61 mg/kg
CCCCC(=O)c1ccc2c(c1)oc(=O)n2CCN1CCCCC1	–	No activity or toxicity at 300 mg/kg	No activity or toxicity at 300 mg/kg	–	No activity or no toxicity at 300 mg/kg	No activity or no toxicity at 300 mg/kg	–	–	active at 100 mg/kg	–	–	active at 100 mg/kg	–	–	–
CN(C)CCn1c(=O)oc2cc(C(=O)c3ccccc3)ccc21	0.25	–	active at 300 mg/kg	> 120	No activity or no toxicity at 300 mg/kg	No activity or no toxicity at 300 mg/kg	> 10000	> 27	–	99	0.25	–	active at 300 mg/kg	active at 300 mg/kg	ED50 (Mus musculus [14]): 84.4 mg/kg; Rotarod toxicity [15]: active at 300 mg/kg
CCCc1ccc2nc(O)sc2c1	–	–	active at 100 mg/kg	–	–	–	–	–	active at 100 mg/kg	–	–	–	–	active at 100 mg/kg	MES (Mus musculus [17]): active at 100 mg/kg; scMet (Mus musculus [18]): active at 300 mg/kg; scMet (Mus musculus [19]): active at 300 mg/kg
CCC(=O)c1ccc2c(c1)sc(=O)n2CCN1CCCC1	0.25	active at 30 mg/kg	–	> 80	No activity or no toxicity at 300 mg/kg	No activity or no toxicity at 300 mg/kg	919	1.6	active at 100 mg/kg	48.4	0.25	active at 100 mg/kg	–	–	MES (Mus musculus [20]): active at 30 mg/kg; ED50 (Mus musculus [14]): 13.9 mg/kg
CCCc1ccc2nc(O)oc2c1	–	–	active at 300 mg/kg	–	–	active at 100 mg/kg	–	–	active at 100 mg/kg	–	–	–	active at 300 mg/kg	active at 100 mg/kg	scMet (Mus musculus [21]): active at 100 mg/kg
CCCCC(=O)c1ccc2c(c1)oc(=O)n2CCCN1CCCCC1	–	–	active at 300 mg/kg	–	No activity or no toxicity at 300 mg/kg	No activity or no toxicity at 300 mg/kg	–	–	active at 100 mg/kg	–	–	active at 100 mg/kg	active at 300 mg/kg	–	–
O=C(c1ccccc1)c1ccc2nc(O)oc2c1	–	No activity or toxicity at 300 mg/kg	No activity or toxicity at 300 mg/kg	–	No activity or no toxicity at 300 mg/kg	No activity or no toxicity at 300 mg/kg	–	–	–	–	–	No activity or no toxicity at 300 mg/kg	–	–	Rotarod toxicity [15]: No activity or no toxicity at 300 mg/kg
CCCCC(=O)c1ccc2c(c1)sc(=O)n2CCN(C)C	0.25	active at 30 mg/kg	–	> 70	No activity or no toxicity at 300 mg/kg	No activity or no toxicity at 300 mg/kg	4610	7	active at 100 mg/kg	61.5	0.25	active at 100 mg/kg	–	–	MES (Mus musculus [20]): active at 30 mg/kg; ED50 (Mus musculus [14]): 27.3 mg/kg
CCC(=O)c1ccc2nc(O)sc2c1	–	No activity or toxicity at 300 mg/kg	No activity or toxicity at 300 mg/kg	–	No activity or no toxicity at 300 mg/kg	No activity or no toxicity at 300 mg/kg	–	–	–	–	–	No activity or no toxicity at 300 mg/kg	–	–	Rotarod toxicity [15]: No activity or no toxicity at 300 mg/kg
O=c1oc2cc(Cc3ccccc3)ccc2n1CCN1CCOCC1	1	–	active at 100 mg/kg	> 225	No activity or no toxicity at 300 mg/kg	No activity or no toxicity at 300 mg/kg	515	7	–	–	1	active at 300 mg/kg	–	–	MES (Mus musculus [17]): active at 100 mg/kg; ED50 (Mus musculus [4]): 87 mg/kg; TD50 (Mus musculus [22]): 194 mg/kg; Rotarod toxicity [23]: active at 300 mg/kg
CCC(=O)c1ccc2c(c1)oc(=O)n2C	–	No activity or toxicity at 300 mg/kg	No activity or toxicity at 300 mg/kg	–	–	active at 100 mg/kg	–	–	active at 100 mg/kg	–	–	active at 100 mg/kg	–	–	scMet (Mus musculus [21]): active at 100 mg/kg
CCC(=O)c1ccc2c(c1)sc(=O)n2CCN(C)C	0.25	–	–	> 130	No activity or no toxicity at 300 mg/kg	No activity or no toxicity at 300 mg/kg	–	–	–	–	0.25	–	active at 30 mg/kg	active at 300 mg/kg	MES (Mus musculus [20]): active at 30 mg/kg; ED50 (Mus musculus [14]): 21.8 mg/kg; TD50 (Mus musculus [22]): 84.5 mg/kg; Rotarod toxicity [23]: active at 300 mg/kg
CCCCCc1ccc2nc(O)oc2c1	0.5	–	active at 300 mg/kg	80.7	–	active at 100 mg/kg	–	–	active at 100 mg/kg	168	1	active at 100 mg/kg	active at 300 mg/kg	–	ED50 (Mus musculus [4]): 70.8 mg/kg; scMet (Mus musculus [21]): active at 100 mg/kg
CCCCC(=O)c1ccc2c(c1)sc(=O)n2CCN1CCOCC1	–	–	active at 300 mg/kg	–	No activity or no toxicity at 300 mg/kg	No activity or no toxicity at 300 mg/kg	–	–	active at 100 mg/kg	–	–	–	active at 300 mg/kg	active at 100 mg/kg	–
O=c1[nH]c2ccccc2o1 [BENZOXAZOLINONE]	–	No activity or toxicity at 300 mg/kg	No activity or toxicity at 300 mg/kg	–	No activity or no toxicity at 300 mg/kg	No activity or no toxicity at 300 mg/kg	–	–	–	–	–	active at 300 mg/kg	–	–	Rotarod toxicity [23]: active at 300 mg/kg
